The subject of one data set is HBsAg secretion. Kind of data set: HBsAg assay (ELISA of secreted HBsAg, HepG2-Clone42 cells). In kind it is cell-based, HBV. On the procedure:
HepG2-Clone42, a Tet-inducible HBV-expressing cell line with a stably integrated 1.3mer copy of the HBV ayw strain, was generated based on the Tet-inducible HepAD38 cell line with slight modifications. Ladner S K, et al., Antimicrobial Agents and Chemotherapy. 41(8):1715-1720 (1997). HepG2-Clone42 cells were cultured in DMEM/F-12+Glutamax™ (Life Technologies, Carlsbad, Calif., USA), supplemented with 10% fetal bovine serum (Life Technologies), G-418 (Corning, Manassas, Va., USA) at a final concentration of 0.5 mg/mL, and 5 μg/mL Doxycycline (Sigma, St. Louis, Mo., USA) and maintained in 5% CO2 at 37° C.
HepG2-Clone42 cells were seeded in into black clear-bottom 96-well plates at a concentration of 6.0×10^4 cells/well. 24 hours post-seeding, the cells were treated with 200 μl/well of media containing five-fold serial dilutions of compounds in DMSO. DMSO alone was used as the no drug control. The final DMSO concentration in all wells was 0.5%.
The HBsAg ELISA kit (Alpha Diagnostic International, San Antonio, Tex., USE, Catalog #4110) was used to determine the level (semi-quantitative) of secreted HBV sAg.
The HBSAg ELISA assay was performed following the manufacturer's protocol as described.
Step 1. Pipet 100 μL each of compound or DMSO treated samples into HBsAg ELISA plates. Seal plates and incubate at room temp for 60 minutes.
Step 2. Aspirate samples and wash three times with Wash Buffer. Dispense 100μ of antibody-HRP conjugate to each well. Incubate at room temp for 30 minutes.
Step 3. Aspirate samples and wash three times with Wash Buffer. Add 100 μL of TMB Substrate to all wells and incubate 15 minutes at room temp.
Step 4. Dispense 100 μL of Stop Solution to each well. Measure absorbance of ELISA plate at 450 nm.
EC50 values were determined as follows: • 1. Determine the percent of HBsAg secretion inhibition. Calculate the percent inhibition on of HBsAg secretion inhibition using the following equation: 100×(XC−MB)/(MD−MB) • where XC is the absorbance signal from compound-treated well; MB is average absorbance signal (background signal) for column 12 (no cells+HBsAg ELISA sample buffer) and MD is average absorbance signal from DMSO-treated wells. Then calculate EC50 values by non-linear regression using a four parameter curve logistic equation. The curve fit model employed is XLFit Dose Response One Site Model 204: y=(A+((B−A)/(1+(10^((C−x)*D))))) where A is the minimum y value, B is the maximum y value, C is the log EC50 value, and D is the slope factor. High Throughput Solubility Measurement • 1. Transfer 20 ul of 10 mM DMSO stock solution into a 96 deep well plate labeled as […] and 5 ul to another plate labeled as compound standard plate. • 2. Place the buffer plate in a Multi-Tainer MT-4 container (FTS Systems). Freeze dry overnight to remove DMSO. • 3. Add 100 ul of Cl-free PBS (pH 6.8) to the dried compound in the buffer plate and 95 ul of DMSO to the standard plate. • 4. The buffer plate is be sonicated in a water bath for 10 min. • 5. The two plates are then placed onto the VWR orbital shaker to equilibrate for 24 hours at room temperature. • 6. The buffer plate is centrifuged at 4000 rpm for 30 min. • 7. Transfer 10 ul aliquots of supernatant from the buffer plate to a sample plate and dilute 5 fold. • 8. Inject both compound standard and sample into the UPLC/UV/CLND/MS to generate multi detector qualitative and quantitive analytical data. • 9. Data was processed with Xcalibur. CLND equimolar response was used for measuring compound concentration of DMSO solution. UV270 nm or MS relative ratio was used for solubility determination.
A general note: ELISA stands for enzyme-linked immunosorbent assay.

Data set [1] is described as follows: Pharmacokinetics in rat (iv and PO). In kind it is in vivo.
Data set [2] in a line: Pharmacokinetics in mice (iv and PO). In kind it is in vivo.
A short description of data set [3]: High throughput solubility measurement in PBS. Format: physicochemical. The note with it: Cl-free PBS, aqueous buffer, thermodynamic from solid; PBS (phosphate-buffered saline), pH 6.8, 24 hours at room temperature. From the text: The following table provides data for solubility of compounds of the invention in PBS (phosphate-buffered saline), using a standard solubility screening method.

Data set [4] in a line: Pharmacokinetics in dog (iv and PO). In kind it is in vivo.
Setting [5] is: Hepatitis B virus, read-out: HBsAg EC50, HepG2-Clone42 cells, HBsAg secretion reduced 50% vs DMSO control.
[6] abbreviates: read-out: HBsAg EC50, HepG2-Clone42 cells, HBsAg secretion reduced 50% vs DMSO control.

In brackets after ≈: the same amount, converted by molar mass. Like-named read-outs stand apart in the source and are kept apart here.

One may read the EC50 as the concentration at which the effect is half-maximal. For the compound `COCCCOc1cc2c(cc1OC)-c1c(F)c(=O)c(C(=O)O)cn1[C@@H]1[C@H]2CCC1(C)C` (racemic) [Compound 3.2], the EC50 with HBsAg secretion (setting [5]) is 740 nM.

For `COCCCOc1cc2c(cc1OC)-c1cc(=O)c(C(=O)O)cn1[C@H]1[C@H]2CCC1(C)C` (racemic) [rac-2, 10-methoxy-11-(3-methoxypropoxy)-3,3-dimethyl-7-oxo-1,2,3,3a,7,12b-hexahydrocyclopenta[c]pyrido[2,1-a]isoquinoline-6-carboxylic acid], the EC50 with HBsAg secretion (setting [5]) was 460 nM.

On to `COCCCOc1cc2c(cc1OC)-c1cc(=O)c(C(=O)O)cn1C1C2CCCC1(C)C` (single isomer, unassigned) [Compound 9.1, 11-methoxy-12-(3-methoxypropoxy)-4,4-dimethyl-8-oxo-2,3,4,4a,8,13b-hexahydro-1H-pyrido[1,2-f]phenanthridine-7-carboxylic acid], for which the EC50 in the data set with HBsAg secretion (setting [6]) is 9 nM.

On to `COCCCOc1cc2c(cc1OC)-c1cc(=O)c(C(=O)O)cn1C1C2CCCC1(C)C` (single isomer, unassigned) [Compound 9.2, 11-methoxy-12-(3-methoxypropoxy)-4,4-dimethyl-8-oxo-2,3,4,4a,8,13b-hexahydro-1H-pyrido[1,2-f]phenanthridine-7-carboxylic acid], for which, in the data set on HBsAg secretion (setting [6]), the EC50 was found to be 303 nM.

As for `COCCCOc1cc2c(cc1Cl)-c1cc(=O)c(C(=O)O)cn1[C@H]1[C@@H]2CCC1(C)C` (stereo in doubt) [Compound 5.1, (3aS,12bR)-10-chloro-11-(3-methoxypropoxy)-3,3-dimethyl-7-oxo-1,2,3,3a,7,12b-hexahydrocyclopenta[c]pyrido[2,1-a]isoquinoline-6-carboxylic acid], the EC50 with HBsAg secretion (setting [5]) worked out at 6 nM.

As a reminder, the Cmax is the peak of the concentration-time curve. The Tmax is the time at which the peak concentration occurs. One may read the AUC as concentration integrated over time. A word on the solubility: it is how much of the substance goes into solution per volume. Higher therefore signals a readily soluble substance. In the case of `COCCCOc1cc2c(cc1OC)-c1cc(=O)c(C(=O)O)cn1[C@H]1[C@@H]2CCC1(C)C` [Compound 1.1, (3aS,12bR)-10-methoxy-11-(3-methoxypropoxy)-3,3-dimethyl-7-oxo-1,2,3,3a,7,12b-hexahydrocyclopenta[c]pyrido[2,1-a]isoquinoline-6-carboxylic acid], the results for the T1/2term. in data set [1], in data set [2] and in data set [4] were 2.4 h, 1.6 h and 5.9 h, respectively. For the same compound, the highest concentration (Cmax) in data set [1] (in vivo, PO 2.0 mg/kg) worked out at 1720 nM; in data set [2] (mouse, in vivo, PO 2.0 mg/kg), 570 nM; in data set [4] (in vivo, PO 1.0 mg/kg), 1900 nM. The time to peak (Tmax) was 1.33 h in data set [1] (in vivo, PO 2.0 mg/kg); 0.5 h in data set [2] (mouse, in vivo, PO 2.0 mg/kg); 0.22 h in data set [4] (in vivo, PO 1.0 mg/kg). Moreover, the AUC in data set [1] (in vivo, PO 2.0 mg/kg, read-out: AUC PO) came to 4.5 µM·h; in data set [1] (in vivo, iv 1.0 mg/kg, read-out: AUC iv) it was 2.5 µM·h; in data set [2] (mouse, in vivo, PO 2.0 mg/kg, read-out: AUC PO), 1.7 µM·h; in data set [2] (mouse, in vivo, iv 1.0 mg/kg, read-out: AUC iv), 1.5 µM·h; in data set [4] (in vivo, PO 1.0 mg/kg, read-out: AUC PO) it was 5.7 µM·h; in data set [4] (in vivo, iv 0.5 mg/kg, read-out: AUC iv), 3.1 µM·h. For the same compound, the clearance in data set [1] (in vivo, iv 1.0 mg/kg) came to 15.3 mL/min/kg; in data set [2] (mouse, in vivo, iv 1.0 mg/kg), 24.6 mL/min/kg; in data set [4] (in vivo, iv 0.5 mg/kg), 6.4 mL/min/kg. In addition, the bioavailability is 97% in data set [1] (in vivo, iv 1.0 mg/kg, PO 2.0 mg/kg, read-out: Oral BA (% F)); 59% in data set [2] (mouse, in vivo, iv 1.0 mg/kg, PO 2.0 mg/kg, read-out: Oral BA (% F)); 93% in data set [4] (in vivo, iv 0.5 mg/kg, PO 1.0 mg/kg, read-out: Oral BA (% F)). Besides, the Vd in data set [1] (in vivo, iv 1.0 mg/kg, read-out: Vss) amounted to 1.3 L/kg; in data set [2] (mouse, in vivo, iv 1.0 mg/kg, read-out: Vss), 3.6 L/kg; in data set [4] (in vivo, iv 0.5 mg/kg, read-out: Vss) it was 1.7 L/kg. In the data set with HBsAg secretion (setting [5]), the concentration giving a half-maximal response (EC50) was 0.1 nM. In data set [3], the solubility at 24 h worked out at 2400 µM (≈ 1030 µg/mL).

Take `COCCCOc1cc2c(cc1OC)-c1cc(=O)c(C(=O)O)cn1[C@@H]1[C@H]2CCC1(C)C` [Compound 1.2, (3aR,12bS)-10-methoxy-11-(3-methoxypropoxy)-3,3-dimethyl-7-oxo-1,2,3,3a,7,12b-hexahydrocyclopenta[c]pyrido[2,1-a]isoquinoline-6-carboxylic acid]: in the data set on HBsAg secretion (setting [5]), the EC50 was found to be 13 nM.

Take `COCCCOc1cc2c(cc1Cl)-c1cc(=O)c(C(=O)O)cn1[C@@H]1[C@H]2CCC1(C)C` [Compound 5.2, (3aR,12bS)-10-chloro-11-(3-methoxypropoxy)-3,3-dimethyl-7-oxo-1,2,3,3a,7,12b-hexahydrocyclopenta[c]pyrido[2,1-a]isoquinoline-6-carboxylic acid]: the 50% effective concentration (EC50) in the data set on HBsAg secretion (setting [5]) was 0.1 nM.

In the case of `COCCCOc1cc2c(cc1OC)-c1cc(=O)c(C(=O)O)cn1C1CCCC21` (centres unmarked) [Compound 6.1, 10-methoxy-11-(3-methoxypropoxy)-7-oxo-1,2,3,3a,7,12b-hexahydrocyclopenta[c]pyrido[2,1-a]isoquinoline-6-carboxylic acid], in the data set with HBsAg secretion (setting [5]), the EC50 amounted to 9 nM.

`COCCCOc1cc2c(cc1OC)-c1cc(=O)c(C(=O)O)cn1C1CCCC21` (centres unmarked) [Compound 6.2, 10-methoxy-11-(3-methoxypropoxy)-7-oxo-1,2,3,3a,7,12b-hexahydrocyclopenta[c]pyrido[2,1-a]isoquinoline-6-carboxylic acid]: in the data set on HBsAg secretion (setting [6]), the EC50 turned out to be 5 nM.

In the case of `COCCCOc1cc2c(cc1OC)-c1c(F)c(=O)c(C(=O)O)cn1[C@H]1[C@@H]2OCC1(C)C` [Compound 7.1, (3aR,12bR)-8-fluoro-10-methoxy-11-(3-methoxypropoxy)-3,3-dimethyl-7-oxo-3,3a,7,12b-tetrahydro-2H-furo[3,2-c]pyrido[2,1-a]isoquinoline-6-carboxylic acid], in the data set with HBsAg secretion (setting [5]), the EC50 was determined as 0.8 nM.

As to `COCCCOc1cc2c(cc1OC)-c1c(F)c(=O)c(C(=O)O)cn1C1[C@H]2OCC1(C)C` (some centres unmarked) [Compound 7.2], the EC50 with HBsAg secretion (setting [5]) came to 90 nM.

Turning to `COCCCOc1cc2c(cc1OC)-c1cc(=O)c(C(=O)O)cn1[C@H]1[C@@H]2COC1(C)C` [Compound 8.1, (3aS,12bR)-10-methoxy-11-(3-methoxypropoxy)-3,3-dimethyl-7-oxo-3,3a,7,12b-tetrahydro-1H-furo[3,4-c]pyrido[2,1-a]isoquinoline-6-carboxylic acid], the concentration giving a half-maximal response (EC50) with HBsAg secretion (setting [5]) worked out at 1 nM.

The values above are taken from US10093673B2, “Tetracyclic pyridone compounds as antivirals” (Novartis AG, priority 2016, dated 2018).
